Key:
[1] = test system: PARP inhibitor resistant BRCA1-deficient cells (53BP1 silencing); test: Sensitivity of PARP inhibitor resistant cells with restored HR (53BP1 silencing); assay type: cell-based
[2] = test system: UWB1.289 (BRCA1-mutant ovarian cancer cell line); test: Colony formation (sensitivity) assay in UWB1.289; assay type: cell-based; settings: BRCA1-mutant UWB1.289, compared to UWB1.289+BRCA1
Protocol: (§1) Cells were transfected with siRNA or plasmid 18-24 h before being plated for colony formation assays. Cells were counted and plated in triplicates in 6-well plates. For treatment with ML323, plated cells were allowed to adhere overnight before treatment with ML323 the next day. At the end of the experiment, cells were fixed with methanol for 10 min at −20° C. then stained with crystal violet. Quantification of cell growth area was performed with ImageJ.

[3] = molecular target: T1, wild-type, full-length USP1 (Homo sapiens, UniProt O94782); test: Ub-CHOP2 deubiquitination assay, WT-USP1; assay type: biochemical
T1 construct: purchased Boston Biochem / R&D systems E564
T1 sequence (O94782 1-785): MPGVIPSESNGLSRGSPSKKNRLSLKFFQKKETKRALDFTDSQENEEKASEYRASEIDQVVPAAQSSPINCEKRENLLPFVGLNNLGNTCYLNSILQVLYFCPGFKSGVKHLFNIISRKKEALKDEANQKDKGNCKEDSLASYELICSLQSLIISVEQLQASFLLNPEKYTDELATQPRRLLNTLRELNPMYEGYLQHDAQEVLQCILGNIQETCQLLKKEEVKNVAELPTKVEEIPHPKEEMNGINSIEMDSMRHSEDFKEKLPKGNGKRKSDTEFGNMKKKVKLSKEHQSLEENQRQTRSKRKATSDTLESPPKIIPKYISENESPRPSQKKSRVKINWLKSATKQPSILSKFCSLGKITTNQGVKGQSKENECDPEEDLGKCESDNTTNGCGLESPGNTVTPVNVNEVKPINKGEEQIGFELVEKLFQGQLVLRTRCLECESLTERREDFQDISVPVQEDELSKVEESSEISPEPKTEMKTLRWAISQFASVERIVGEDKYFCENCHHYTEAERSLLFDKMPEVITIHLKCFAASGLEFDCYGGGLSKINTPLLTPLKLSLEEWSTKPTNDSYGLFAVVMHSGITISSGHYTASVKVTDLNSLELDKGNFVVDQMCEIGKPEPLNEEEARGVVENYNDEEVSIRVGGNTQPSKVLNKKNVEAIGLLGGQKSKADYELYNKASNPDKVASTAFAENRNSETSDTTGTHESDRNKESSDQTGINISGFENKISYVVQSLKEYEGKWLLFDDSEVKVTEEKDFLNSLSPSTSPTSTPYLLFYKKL
Protocol: (§2) FIG. 11B. Ub-CHOP2 assay of WT-USP1 and Trunc-USP1 with and without USP1 inhibitor ML323.
(§3) Preparation of recombinant USP1 and UAF1 wild type and mutant proteins in SF9 cells and Ub-AMC assays were performed by the method as described in Cohn M A, Kowal P, et al. A UAF1-containing multisubunit protein complex regulates the Fanconi anemia pathway. Molecular cell. 2007; 28(5):786-97. Ub-CHOP2 assays (Life Sensors, Malvern, PA, PR1101) were performed according to manufacturer's instructions. Ub-AMC assays were performed by the methods as described in Cohn M A et al., UAF1 is a subunit of multiple deubiquitinating enzyme complexes. The Journal of biological chemistry. 2009; 284(8):5343-51; Cohn M A, et al. A UAF1-containing multisubunit protein complex regulates the Fanconi anemia pathway. Molecular cell. 2007; 28(5):786-97; Kee Y, et al., WDR20 regulates activity of the USP12 UAF1 deubiquitinating enzyme complex. Journal of Biological Chemistry. 2010; 285(15):11252-7; and Mistry H, Hsieh G, et al. Small-molecule inhibitors of USP1 target ID1 degradation in leukemic cells. Molecular cancer therapeutics. 2013; 12(12):2651-62.

[4] = test system: BRCA1-deficient UWB1.289 cells; test: Colony assay, ML323 combined with Olaparib in UWB1.289; assay type: cell-based; settings: 0 nM or 25 nM Olaparib and increasing doses of ML323
Protocol: FIG. 14. USP1 inhibition is non-epistatic with PARP inhibitors in BRCA1 deficient cells (Top: BRCA1-deficient UWB1.289 cells treated with 0 nM or 25 nM of Olaparib and increasing doses of USP1 inhibitor ML323. Bottom: Representative pictures of UWB1.289 colonies).
as §1

[5] = test system: PARP inhibitor resistant UWB1.289 SYR14 cells; test: Clonogenic assay in PARP inhibitor resistant UWB1.289 SYR14; assay type: cell-based
Protocol: FIG. 23A. Quantification of colonies after clonogenic assay of parental BRCA1-deficient UWB1.289 cells and PARP inhibitor resistant UWB1.289 SYR14 cells treated with USP1 inhibitor ML323.
as §1

USP1-Trunc = test: Ub-CHOP2 deubiquitination assay, Trunc-USP1; assay type: biochemical
Protocol: as §2, §3

USP1 = molecular target: T2, USP1 (Homo sapiens, UniProt O94782); test: Western blot of USP1 with and without ML323; assay type: cell-based
T2 construct: endogenous in cells
Protocol: FIG. 8F. Western blot of USP1 with and without ML323 treatment. Following inhibition of USP1 deubiquitinating enzyme (DUB) activity, USP1 autocleavage is inhibited, resulting in a more intense top USP1 band. In addition, Ser313 phosphorylation is induced, resulting in a higher MW band in the blot.
Cells were lysed with lysis buffer (300 mM NaCl, 50 mM Tris-Cl, 1 mM EDTA, 0.5% NP-40), lysates resolved on denaturing Nupage (Invitrogen, Carlsbad, CA) polyacrylamide gels and transferred onto nitrocellulose membranes. Membranes were blocked with 5% milk in TBST, and probed with primary and secondary antibodies respectively, then detected with chemiluminescence (Western Lightning, Perkin Elmer, Waltham, MA).

[6] = molecular target: T3, full-length USP1 / forked DNA (Homo sapiens, UniProt O94782); test: Electromobility shift assay of USP1 with forked DNA; assay type: binding; settings: 0-300 nM USP1, 0-1000 nM ML323, forked DNA
T3 construct: purchased Boston Biochem / R&D systems E564
T3 sequence (O94782 1-785): T1 sequence (O94782 1-785)
Protocol: FIG. 11C. Electromobility shift assay of 0-300 nM of USP1 incubated with 0-1000 nM of ML323 and forked DNA.
Recombinant USP1 and UAF1 proteins from R&D systems (E564, E566) were used for some electromobility shift assays and in vitro deubiquitination assays. Electromobility shift assays were performed by pre-incubating fluorophore (Cy3)-tagged DNA and purified protein in binding buffer (20 mM Hepes (pH 7.6), 0.1M KCl, 5 mM MgCl2, 3% (v/v) glycerol, 0.25 mg/ml BSA, 0.05 mM EDTA, 0.5 mM DTT, 0.01% (v/v) NP-40) for 30 min on ice. Samples were then loaded onto 6% polyacrylamide gels and ran at 65V in 0.5× TBE for 135 min at 4° C. Gels were visualized using the LAS-4000 imaging system (GE Healthcare Life Sciences, Pittsburgh, PA). DNA used for Ub-AMC, Ub-CHOP2 and electromobility shift assay were 40 bp in length and were designed to have minimal potential of secondary structure formation.

[7] = test system: BRCA1 deficient MDA-MB-436 cells; test: Replication combing (fiber) assay in MDA-MB-436 after hydroxyurea; assay type: cell-based; settings: 10 μM ML323 for 24 h; effect not increased with USP1 silencing
Protocol: FIG. 20B. Schematic of the experimental design for the fiber assay, graphical quantification of fiber assay measuring replication fork stability in MDA-MB-436 cells following treatment with either siCtrl or siUSP1, untreated or treated with 10 μM of ML323 for 24 h.
Replication combing assay was performed using the FiberComb machine (Genomic Vision, Bagneux, France). Br iefly, cells were treated with CldU, IdU then HU, with 3 PBS washes between each treatment. Cells were then trypsinized, counted and embedded in low melting point agarose plugs, then treated with proteinase k overnight. Agarose plugs were then washed and digested with agarase. Agarase-treated samples were then poured into FiberComb wells and combed onto silanized coverslips. Coverslips were probed with rat anti-BrdU antibody (clone BU1/75 (ICR1) specific to CldU, Life Technologies, Woburn, MA, #MA1-82088) and mouse anti-BrdU Antibody (specific to IdU, BD Biosciences, Woburn, MA, #347580) and visualized by fluorescence microscopy. Pictures were taken of at least 100 fibers per condition. Fibers were measured with ImageJ and graphed.

FANCD2-Ub = settings: cited from earlier work

T2 sequence (Q8TAF3 whole entry partner, one chain of several): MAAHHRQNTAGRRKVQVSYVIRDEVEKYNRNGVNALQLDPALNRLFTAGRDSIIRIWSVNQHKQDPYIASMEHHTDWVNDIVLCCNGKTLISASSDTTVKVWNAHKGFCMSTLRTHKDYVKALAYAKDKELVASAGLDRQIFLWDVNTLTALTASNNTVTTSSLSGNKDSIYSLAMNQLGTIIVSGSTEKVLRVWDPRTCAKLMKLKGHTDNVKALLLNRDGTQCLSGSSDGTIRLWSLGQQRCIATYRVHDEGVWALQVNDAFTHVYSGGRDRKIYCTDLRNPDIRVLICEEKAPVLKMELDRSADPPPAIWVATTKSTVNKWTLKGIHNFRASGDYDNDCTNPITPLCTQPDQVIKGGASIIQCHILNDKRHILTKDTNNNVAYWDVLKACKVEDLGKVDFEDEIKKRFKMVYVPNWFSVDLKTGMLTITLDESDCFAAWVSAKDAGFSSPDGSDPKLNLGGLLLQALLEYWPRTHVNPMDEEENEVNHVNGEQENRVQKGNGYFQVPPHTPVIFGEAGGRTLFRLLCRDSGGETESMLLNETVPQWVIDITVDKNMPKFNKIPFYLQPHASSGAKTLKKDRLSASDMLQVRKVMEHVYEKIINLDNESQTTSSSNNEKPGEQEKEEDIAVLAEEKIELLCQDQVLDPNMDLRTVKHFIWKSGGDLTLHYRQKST

SMILES: Cc1cnc(-c2ccccc2C(C)C)nc1NCc1ccc(-n2ccnn2)cc1 [ML323]
- sensitivity of PARP inhibitor resistant cells resulting from restoration of HR [1]: resistant
- growth of UWB1.289 cells [2]: reduced growth
- DUB activity of wild-type, full-length USP1 [3]: inhibits
- interaction of USP1 inhibition with PARP inhibitors in BRCA1 deficient cells [4]: non-epistatic
- sensitivity of PARP inhibitor resistant cells resulting from fork stabilization [5]: remained sensitive
- DUB activity of USP1-Trunc (USP1-Trunc): inhibits
- USP1 Ser313 phosphorylation (USP1): induced
- USP1 autocleavage (USP1): inhibited
- DNA binding activity of full-length USP1 [6]: does not interfere
- fork degradation following hydroxyurea treatment [7]: enhanced fork degradation
- FANCD2 deubiquitination (FANCD2-Ub): blocks
- cellular FANCD2-Ub level (FANCD2-Ub): accumulation

From patent US12263166B2, “Methods of treating cancers having a BRCA1 and/or BRCA2 mutation(s)” (Dana-Farber Cancer Institute, Inc., priority 2017, dated 2025)
